# Conditions: buffer; pH 7.4; 200.0 µM
row,Compound,solubility kinetic
1,Cc1occc1-c1nnc(SCC(=O)NC2CC2)n1C,> 43.9 µg/mL
2,Cc1ccccc1NC(=S)NC1CCCC1,34.9 µg/mL
3,O=C1NNC(=O)C1c1ccccc1,> 26.4 µg/mL
4,COc1ccc(-c2nc(N)nc(C(F)(F)F)c2-c2cscn2)c(O)c1,< 0.2 µg/mL
5,Cc1ccc(Cl)c(Nc2ccccc2C(=O)[O-])c1Cl.[Na+],> 47.7 µg/mL
6,O=C(CSc1ncccn1)Nc1cc(Cl)ccc1[N+](=O)[O-],4.7 µg/mL
7,Cc1cccc(NC(=S)N2CCCC2)c1,> 33 µg/mL
8,O=C(CCOc1ccccc1)Nc1ccc(Br)cc1,< 0.7 µg/mL
9,CC(C)CCNC(=O)COc1cccc2c1OC(C)(C)C2,43.4 µg/mL
10,CCOC(=O)C1=C(C)Nc2ccccc2S1,17.9 µg/mL
11,O=C(COc1ncnc2ccccc12)NCCc1ccccc1,44.8 µg/mL
12,CC(=O)Nc1cccc(C(=O)OCC(=O)NC(=O)c2ccccc2)c1,3.5 µg/mL
13,Cc1cccc2cc(C#N)c(N3CCC(O)CC3)nc12,34.3 µg/mL
14,Cc1cc(C)c2c(CN3CCOCC3)cc(=O)oc2c1C,26.5 µg/mL
15,COc1ccc2cc(CCl)c(Cl)nc2c1,19.2 µg/mL
16,COc1ccc(CNC(=S)Nc2ccc(Br)cc2)cc1,< 0.4 µg/mL
17,O=C1CSC2(N1)C1CC3CC(C1)CC2C3 (stereo not given),12.5 µg/mL
18,Cc1cc(C)c2c(=O)[nH]c(SCC(=O)N3CCOCC3)nc2n1,> 50.2 µg/mL
19,O=C(CCNC(=O)c1ccccc1)NC1CCCc2ccccc21 (stereo not given),43.4 µg/mL
20,Cc1ccc(C(=O)NCC(=O)Nc2ccc3c(c2)CCC3)cc1C,2.6 µg/mL
21,O=C1c2ccccc2S(=O)(=O)N1Cc1ccccc1[N+](=O)[O-],0.7 µg/mL
22,Clc1ccccc1C1CC(c2ccccc2)=Nc2ccccc2N1 (stereo not given),1.2 µg/mL
23,C=CC1CN2CCC1CC2C(OC(C)=O)c1ccnc2ccc(OC)cc12 (stereo not given),> 55 µg/mL
24,Cc1cccc(C(=O)Nc2scc(-c3ccc(Br)cc3)c2C(=O)O)c1,3.6 µg/mL
25,N#CCC(=O)Nc1ccc(C(=O)OCC(=O)NC(=O)NCc2ccco2)cc1,17.4 µg/mL

row,Compound,solubility kinetic
1,CCN=C1S/C(=C\c2cc(Cl)c(OC)c(OC)c2)C(=O)N1CC,0.8 µg/mL
2,CC(=O)Nc1ccc(NC(=O)CCCc2ccccc2)cc1,22.9 µg/mL
3,C=CCNC(=O)CC12CC3CC(C1)CC(CC(=O)NCC=C)(C3)C2,> 49.6 µg/mL
4,Cc1ccccc1NC(=O)NCc1ccccn1,> 36.2 µg/mL
5,O=C1OCc2ccc(NC(=O)c3ccccc3C(=O)O)cc21,> 44.6 µg/mL
6,CC1C(C#N)=C(N)OC2=C1C(=O)CC(c1ccccc1)C2 (stereo not given),> 42 µg/mL
7,O=C(O)/C=C/c1cccc(NC(=O)c2ccccc2)c1,34 µg/mL
8,O=C(CN1C(=O)NC2(CCCCCCC2)C1=O)Nc1ccc(OC(F)F)cc1,20.8 µg/mL
9,CC1CCCN(c2c3c(nc4ccccc24)CCCC3)C1 (stereo not given),0.6 µg/mL
10,CC(C)NCC(=O)C12CC3CC(CC(C3)C1)C2,28.7 µg/mL
11,COc1ccc(C(=O)NCCN2CCOCC2)cc1[N+](=O)[O-],> 46.4 µg/mL
12,CCP(=O)(c1cccc([N+](=O)[O-])c1)c1cccc([N+](=O)[O-])c1,> 48 µg/mL
13,COC(=O)c1c(C(C)=O)c(C)n(C)c1C,> 31.4 µg/mL
14,COc1cccc(NC(=O)COC(=O)c2c(C)noc2C)c1,> 45.6 µg/mL
15,C=C(C)c1cccc(C(C)(C)NC(=O)Nc2ccc(OC)nc2)c1,14 µg/mL
16,O=C(COC(=O)c1ccc([N+](=O)[O-])o1)NC1CCCC1,39.2 µg/mL
17,CCOc1ccc(C2C([N+](=O)[O-])=C(C)N(C)C(=O)N2C)cc1OC (stereo not given),> 50.3 µg/mL
18,COC(=O)c1cc(S(=O)(=O)N2CCC(C)CC2)cn1C,41.9 µg/mL
19,O=C(/C=C/c1ccccc1)NC(=S)Nc1ccccc1O,0.5 µg/mL
20,O=C(COC(=O)c1cc(=O)c2ccccc2o1)Nc1ccccc1F,> 51.2 µg/mL
21,COC(=O)c1cc(OC)c(OC)cc1NC(=S)N1CCCC1,6.3 µg/mL
22,CSc1ncccc1C(=O)OCC(=O)Nc1ccc(Cl)cn1,3.6 µg/mL
23,Cc1cc(C)nc(Nc2cc([N+](=O)[O-])ccc2C)n1.Cl,5.4 µg/mL
24,CCC(=O)Nc1nc(-c2cc([N+](=O)[O-])cs2)cs1,1 µg/mL
25,CC(=O)Nc1nc(-c2cccc3ccccc23)cs1,5.3 µg/mL

row,Compound,solubility kinetic
1,COc1cccc(NC(=O)N2C3CCCC2CC(NC(=O)C2CC2)C3)c1 (stereo not given),44.4 µg/mL
2,O=C(CN1CCOCC1)Nc1nc(-c2ccccc2)cs1,42.2 µg/mL
3,O=C1c2cccc([N+](=O)[O-])c2C(=O)N1C1CCCCC1,17.7 µg/mL
4,Nc1nc(NCCc2ccccc2)nc(NCc2ccccc2)c1[N+](=O)[O-],0.2 µg/mL
5,NC(=O)Nc1ccc(C(=O)OCC(=O)c2c[nH]c3ccccc23)cc1,4.2 µg/mL
6,COc1ccc(-c2nc3ccccn3c2Cl)cc1,4.4 µg/mL
7,CCc1sc(C(=O)N2CCCN(C)CC2)cc1Br,46.5 µg/mL
8,O=C(C(Cl)c1ccccc1)N1CCCC1 (stereo not given),33.1 µg/mL
9,COc1ccccc1CNC(=O)C(NC(=O)c1ccccc1)C(C)C (stereo not given),9.9 µg/mL
10,CCn1c(C)cc(O)c(C(=O)Nc2cccc(Cl)c2)c1=O,< 0.3 µg/mL
11,COc1cccc(CNC(=O)CCc2ccc(OC)c(OC)c2)c1,> 49.4 µg/mL
12,OC1(Cc2ccccc2)CCNCC1,> 28.7 µg/mL
13,Cn1c(N)c(C(=O)COC(=O)C2CCCN2C(=O)c2cccs2)c(=O)n(C)c1=O (stereo not given),56.8 µg/mL
14,CCOC(=O)C1=C(COC(=O)[C@@H](NC(=O)c2cccc(C)c2)C(C)C)NC(=O)NC1C (stereo not given in full),> 64.7 µg/mL
15,COc1ccc(C(OC(=O)c2ccco2)C(=O)NC2CCCC2)cc1 (stereo not given),3.4 µg/mL
16,O=C(CCCc1c[nH]c2ccccc12)NCc1ccccc1F,34.5 µg/mL
17,Nc1ccccc1N=c1ssnc1Cl,> 36.6 µg/mL
18,C[C@H](NC(=O)c1ccccc1)C(=O)OCC(=O)Nc1sccc1C(N)=O,> 56.3 µg/mL
19,Cc1nc(COc2cccc(Cl)c2)sc1C(=O)/C=C/N(C)C,> 50.5 µg/mL
20,O=C(N1CCCC1)N1CCN(S(=O)(=O)c2ccccc2)CC1,34.4 µg/mL
21,Cc1[nH]c2c([N+](=O)[O-])cccc2c1C,1.2 µg/mL
22,Nc1ccc(C(=O)Nc2cccc3ncccc23)cc1,37.3 µg/mL
23,O=C(CNC(=O)c1ccc(Cl)cc1)Nc1ccccc1C(F)(F)F,3.4 µg/mL

# Now from value to compound:
row,solubility kinetic,Compound
1,45.3 µg/mL,CC1=CCC2C(=O)N(c3ccc(N4CCOCC4)cc3)C(=O)C2C1 (stereo not given)
2,26.2 µg/mL,COc1ccc(N2CCOCC2)c(NC(=O)c2ccc3c(c2)OCO3)c1
3,3.8 µg/mL,CC1(c2ccccc2)NC(=O)N(CC(=O)Nc2ccc3c(c2)CCC3)C1=O (stereo not given)
4,36.4 µg/mL,O=C1CCCc2ccccc2N1Cc1cccc(F)c1
5,30.9 µg/mL,N#Cc1ccccc1Cn1c(=O)oc2ccccc21
6,53 µg/mL,CC(C)(C)c1ccc(OCC(=O)NCCN2CCOCC2)cc1.Cl
7,> 51.8 µg/mL,Cc1ccc(S(=O)(=O)N2CCN(CCc3ccncc3)CC2)cc1
8,38.7 µg/mL,Cc1ccc(NC(=O)CCCN2C(=O)NC(C)(C)C2=O)cc1
9,> 48.1 µg/mL,O=C1CCc2cc(S(=O)(=O)Nc3ccc(F)cc3)ccc2N1
10,22.5 µg/mL,Cc1ccc(C(=O)OCC(=O)NC2CCCC2)cc1
11,< 0.7 µg/mL,Fc1ccc(C2CC(c3ccco3)=Nc3ccccc3S2)cc1 (stereo not given)
12,> 39.3 µg/mL,COc1cccc(N2C(=O)C3CCCN3C2=S)c1 (stereo not given)
13,5 µg/mL,O=S(=O)(/N=C(/Nc1nccs1)c1ccc(F)cc1)c1ccccc1
14,30.4 µg/mL,O=C1Cc2ccccc2C(c2ccc(Cl)cc2)N1 (stereo not given)
15,27.5 µg/mL,O=S(=O)(NCCc1ccccc1)c1ccc(Br)s1
16,> 37.4 µg/mL,O=C(NCCN1CCNCC1)c1ccccc1O
17,> 55.9 µg/mL,CCOc1ncccc1C(=O)OCC(=O)NCc1ccc(C(=O)OC)cc1
18,18.4 µg/mL,Cn1ccsc1=NC(=O)c1ccc([N+](=O)[O-])o1
19,> 40.7 µg/mL,CCOc1ccccc1NC(=O)NCc1ccccn1
20,> 40.1 µg/mL,CC[C@H](C)[C@H](NC(N)=O)C(=O)Nc1ccccc1F
21,> 49.7 µg/mL,Cc1ccc(S(=O)(=O)CCC(=O)NCCc2ccccc2)cc1
22,> 40.5 µg/mL,Cc1cccnc1NC(=O)c1ccc2c(c1)OCCO2
23,30.7 µg/mL,COc1ccc(OCC(O)CN2CCCC2)cc1 (stereo not given)
24,> 32.3 µg/mL,COc1cccc2[nH]c3c(=O)[nH]cnc3c12

row,solubility kinetic,Compound
1,> 53 µg/mL,COc1ccc(CCNC(=O)CCc2nc3ccccc3[nH]2)cc1OC
2,8.1 µg/mL,Cc1ccc(S(=O)(=O)N2CCN(C(=O)CNC(=O)c3ccc(Cl)cc3)CC2)cc1
3,> 46.3 µg/mL,CCCCN(C)Cc1c(C)[nH]c2c(ccc3ccccc32)c1=O
4,47.4 µg/mL,COc1cccc(NC2=C(NCCO)C(=O)c3ccccc3C2=O)c1
5,37.3 µg/mL,COCC1CCN(C(=O)c2oc3c(F)cccc3c2C)C1 (stereo not given)
6,> 47.6 µg/mL,COc1cccc(NC(=O)CN2C(=O)NC(C)(C3CC3)C2=O)c1 (stereo not given)
7,> 55.6 µg/mL,CC(=O)O.CN1CCCC(CN2c3ccccc3Sc3ccccc32)C1 (stereo not given)
8,32.6 µg/mL,CC(c1ccccc1)N1C(=O)c2cccnc2C1=O (stereo not given)
9,7.5 µg/mL,CCCNC(=S)N1CCC(NC(=O)c2ccc(C)cc2)CC1
10,> 53.7 µg/mL,CCOP(=O)(OCC)/C(=N/OC(=O)c1ccc(OC)cc1)C(N)=O
11,39.9 µg/mL,CCS(=O)(=O)N1CCN=C1SCc1ccc(F)cc1
12,> 69.1 µg/mL,COc1ccccc1N(CCC#N)C(=S)Nc1ccc(S(=O)(=O)N2CCOCC2)cc1
13,> 38.1 µg/mL,O=C(O)/C=C/C(=O)NCCc1ccc(Cl)cc1
14,> 40.8 µg/mL,Cc1cc(=O)[nH]c(SCc2cn3ccccc3n2)n1
15,> 60.2 µg/mL,CC(=O)Nc1ccc(S(=O)(=O)N(CC(=O)NC2CC2)Cc2ccccc2)cc1
16,24.7 µg/mL,CN1CCCN(Cc2cccc3ccccc23)CC1
17,> 50 µg/mL,O=C(COC(=O)C1CC2CCCC(C1)C2=O)Nc1cccc(F)c1 (stereo not given)
18,> 49.7 µg/mL,COc1ccccc1-c1noc(CCCC(=O)N2CCOCC2)n1
19,3.8 µg/mL,O=C1NC2(CCCCC2)C(=O)N1c1ccc(Cl)cc1
20,< 0.7 µg/mL,O=C(NCc1ccc(Cl)cc1)c1cc2ccccc2oc1=O
21,47.4 µg/mL,CC(=O)Nc1ccccc1NS(=O)(=O)c1ccccc1[N+](=O)[O-]
22,< 0.7 µg/mL,CC(C)(C)C(=O)OCc1nc(-c2ccc(C(F)(F)F)cc2)cs1
23,37.9 µg/mL,O=S(=O)(Nc1ccccn1)c1ccc(Br)cc1

# Reference: PubChem BioAssay AID1996
